# Test results reported in ChEMBL document CHEMBL2321869, “Ion channels as therapeutic targets: a drug discovery perspective” (J Med Chem, 2013).
# pEC50, pIC50, pKi: −log10 of the molar value.
# What was measured:
# [1] = target: T1, Gamma-aminobutyric acid receptor subunit alpha-1 (Homo sapiens, UniProt P14867); experiment: Positive allosteric modulation of GABAA alpha1 (unknown origin)
# T1 sequence (P14867 whole entry): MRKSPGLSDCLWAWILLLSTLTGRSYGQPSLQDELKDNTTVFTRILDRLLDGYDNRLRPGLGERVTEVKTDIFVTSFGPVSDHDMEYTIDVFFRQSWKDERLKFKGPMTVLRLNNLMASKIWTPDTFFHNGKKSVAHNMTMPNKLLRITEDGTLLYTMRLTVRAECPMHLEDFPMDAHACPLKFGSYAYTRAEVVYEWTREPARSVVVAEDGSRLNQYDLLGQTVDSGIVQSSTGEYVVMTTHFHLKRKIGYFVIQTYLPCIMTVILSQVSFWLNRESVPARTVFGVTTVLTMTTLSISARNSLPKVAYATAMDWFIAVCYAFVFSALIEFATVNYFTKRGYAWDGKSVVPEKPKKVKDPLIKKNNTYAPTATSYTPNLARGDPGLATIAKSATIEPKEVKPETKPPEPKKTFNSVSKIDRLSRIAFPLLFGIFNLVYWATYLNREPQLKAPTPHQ
# [2] = target: T2, Gamma-aminobutyric acid receptor subunit alpha-5 (Homo sapiens, UniProt P31644); experiment: Positive allosteric modulation of GABAA alpha5 (unknown origin)
# T2 sequence (P31644 whole entry): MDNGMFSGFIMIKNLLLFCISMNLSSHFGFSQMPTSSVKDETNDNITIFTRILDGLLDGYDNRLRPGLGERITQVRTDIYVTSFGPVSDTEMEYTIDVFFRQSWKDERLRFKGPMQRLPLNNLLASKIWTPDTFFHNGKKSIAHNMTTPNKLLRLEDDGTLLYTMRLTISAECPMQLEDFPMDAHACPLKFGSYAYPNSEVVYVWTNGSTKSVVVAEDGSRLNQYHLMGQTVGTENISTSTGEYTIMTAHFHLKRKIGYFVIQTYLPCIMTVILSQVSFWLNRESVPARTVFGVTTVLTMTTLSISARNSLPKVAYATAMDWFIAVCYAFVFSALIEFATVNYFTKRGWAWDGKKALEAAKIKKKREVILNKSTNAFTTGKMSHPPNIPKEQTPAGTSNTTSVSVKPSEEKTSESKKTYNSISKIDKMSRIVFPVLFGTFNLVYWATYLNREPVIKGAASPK
# [3] = target: T3, Gamma-aminobutyric acid receptor subunit alpha-2 (Homo sapiens, UniProt P47869); experiment: Positive allosteric modulation of GABAA alpha2 (unknown origin)
# T3 sequence (P47869 whole entry): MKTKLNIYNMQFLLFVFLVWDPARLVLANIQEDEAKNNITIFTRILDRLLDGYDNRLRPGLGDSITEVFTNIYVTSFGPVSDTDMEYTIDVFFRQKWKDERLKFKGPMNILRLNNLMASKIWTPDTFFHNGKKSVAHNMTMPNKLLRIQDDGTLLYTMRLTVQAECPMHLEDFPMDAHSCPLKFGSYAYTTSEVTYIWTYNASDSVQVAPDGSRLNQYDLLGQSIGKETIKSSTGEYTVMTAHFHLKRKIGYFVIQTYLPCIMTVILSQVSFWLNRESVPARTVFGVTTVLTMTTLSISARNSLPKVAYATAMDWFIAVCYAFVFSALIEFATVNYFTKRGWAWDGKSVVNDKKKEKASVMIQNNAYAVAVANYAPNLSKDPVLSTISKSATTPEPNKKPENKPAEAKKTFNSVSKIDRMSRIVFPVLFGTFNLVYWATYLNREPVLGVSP
# [4] = target: T4, Gamma-aminobutyric acid receptor subunit alpha-3 (Homo sapiens, UniProt P34903); experiment: Positive allosteric modulation of GABAA alpha3 (unknown origin)
# T4 sequence (P34903 whole entry): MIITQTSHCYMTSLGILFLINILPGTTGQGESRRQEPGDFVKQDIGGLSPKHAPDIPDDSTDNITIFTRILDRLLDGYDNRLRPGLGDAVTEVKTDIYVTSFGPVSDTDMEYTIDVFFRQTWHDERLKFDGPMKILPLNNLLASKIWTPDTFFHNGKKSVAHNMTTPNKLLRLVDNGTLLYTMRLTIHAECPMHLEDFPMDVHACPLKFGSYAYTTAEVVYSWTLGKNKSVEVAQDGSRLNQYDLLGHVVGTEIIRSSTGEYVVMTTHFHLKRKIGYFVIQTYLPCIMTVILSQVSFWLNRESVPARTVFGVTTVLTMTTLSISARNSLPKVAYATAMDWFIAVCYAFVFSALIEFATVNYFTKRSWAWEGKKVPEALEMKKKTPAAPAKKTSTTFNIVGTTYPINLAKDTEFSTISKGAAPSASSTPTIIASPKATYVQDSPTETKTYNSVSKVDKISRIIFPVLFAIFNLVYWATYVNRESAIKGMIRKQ
# [5] = target: Voltage-gated potassium channel KCNC1 (Rattus norvegicus, UniProt P25122); experiment: Inhibition of rat voltage-gated K channel 3.1 expressed in CHO cells by patch clamp assay; format: cell-based
# [6] = target: Gamma-aminobutyric acid receptor subunit alpha-5 (Homo sapiens) (UniProt P31644); experiment: Positive allosteric modulation of GABAA alpha5 (unknown origin) relative to control
# [7] = target: Gamma-aminobutyric acid receptor subunit alpha-3 (Homo sapiens) (UniProt P34903); experiment: Positive allosteric modulation of GABAA alpha3 (unknown origin) relative to control
# [8] = target: T5, Gamma-aminobutyric acid receptor subunit alpha-2 (Homo sapiens) (UniProt P47869); experiment: Positive allosteric modulation of GABAA alpha2 (unknown origin) relative to control
# T5 sequence (whole entry): T3 sequence (P47869 whole entry)
# [9] = target: Potassium channel subfamily K member 3 (Homo sapiens, UniProt O14649); experiment: Inhibition of TASK-1 (unknown origin)
# [10] = target: Potassium voltage-gated channel subfamily KQT member 5 (Homo sapiens, UniProt Q9NR82); experiment: Positive modulatory activity at voltage-gated K channel 7.5 (unknown origin)
# [11] = target: Potassium voltage-gated channel subfamily KQT member 3 (Homo sapiens, UniProt O43525); experiment: Positive modulatory activity at voltage-gated K channel 7.3 (unknown origin)
# [12] = target: Potassium voltage-gated channel subfamily KQT member 2 (Homo sapiens, UniProt O43526); experiment: Positive modulatory activity at voltage-gated K channel 7.2 (unknown origin)
# [13] = target: Potassium voltage-gated channel subfamily KQT member 4 (Homo sapiens, UniProt P56696); experiment: Positive modulatory activity at voltage-gated K channel 7.4 (unknown origin)
# [14] = target: Calcium-activated potassium channel subunit alpha-1 (Homo sapiens, UniProt Q12791); experiment: Positive modulation of Kca 1.1 (unknown origin)
# [15] = target: Neuronal acetylcholine receptor; alpha4/beta2 (Homo sapiens, UniProt P17787+P43681); experiment: Agonist activity at human alpha4beta2 nAChR expressed in HEK293 cells incubated for 5 mins measured every second for 1 mins followed by every 5 secs for 4 mins by calcium flux assay; format: cell-based
# [16] = target: Transient receptor potential cation channel subfamily V member 4 (Homo sapiens, UniProt Q9HBA0); experiment: Inhibition of TRPV4 (unknown origin)
# [17] = target: Gamma-aminobutyric acid receptor subunit alpha-1 (Homo sapiens) (UniProt P14867); experiment: Positive allosteric modulation of GABAA alpha1 (unknown origin) relative to control
# [18] = target: P2X2/P2X3 heterotrimeric receptor (Homo sapiens, UniProt P56373+Q9UBL9); experiment: Antagonist activity at human P2X2/3 receptor; format: protein-complex assay
# [19] = target: Glutamate receptor ionotropic, kainate 1 (Homo sapiens, UniProt P39086); experiment: Agonist activity at GluK1 (unknown origin)
# Homo sapiens = organism: Homo sapiens; experiment: Selectivity ratio of IC50 for human voltage-gated Na channel 1.5 to IC50 for human voltage-gated Na channel 1.3
# [20] = target: Sodium channel protein type 3 subunit alpha (Homo sapiens, UniProt Q9NY46); experiment: Inhibition of human voltage-gated Na channel 1.3
# [21] = target: Sodium channel protein type 10 subunit alpha (Homo sapiens, UniProt Q9Y5Y9); experiment: Inhibition of voltage-gated Na channel 1.8 (unknown origin)
# [22] = Blockade of ASIC (unknown origin); set-up: species or system Homo sapiens
# Mus musculus [23] = organism: Mus musculus; experiment: Selectivity ratio of EC50 for mouse voltage-gated K channel 1.3 to EC50 for mouse voltage-gated K channel 1.7
# [24] = Selectivity ratio of EC50 for mouse voltage-gated K channel 1.3 to EC50 for rat voltage-gated K channel 1.2
# [25] = Selectivity ratio of EC50 for mouse voltage-gated K channel 1.3 to EC50 for human voltage-gated K channel 1.4
# Mus musculus [26] = organism: Mus musculus; experiment: Selectivity ratio of EC50 for mouse voltage-gated K channel 1.3 to EC50 for mouse voltage-gated K channel 1.1
# Chain of Transient receptor potential cation channel subfamily V member 4 (Q9HBA0 whole entry): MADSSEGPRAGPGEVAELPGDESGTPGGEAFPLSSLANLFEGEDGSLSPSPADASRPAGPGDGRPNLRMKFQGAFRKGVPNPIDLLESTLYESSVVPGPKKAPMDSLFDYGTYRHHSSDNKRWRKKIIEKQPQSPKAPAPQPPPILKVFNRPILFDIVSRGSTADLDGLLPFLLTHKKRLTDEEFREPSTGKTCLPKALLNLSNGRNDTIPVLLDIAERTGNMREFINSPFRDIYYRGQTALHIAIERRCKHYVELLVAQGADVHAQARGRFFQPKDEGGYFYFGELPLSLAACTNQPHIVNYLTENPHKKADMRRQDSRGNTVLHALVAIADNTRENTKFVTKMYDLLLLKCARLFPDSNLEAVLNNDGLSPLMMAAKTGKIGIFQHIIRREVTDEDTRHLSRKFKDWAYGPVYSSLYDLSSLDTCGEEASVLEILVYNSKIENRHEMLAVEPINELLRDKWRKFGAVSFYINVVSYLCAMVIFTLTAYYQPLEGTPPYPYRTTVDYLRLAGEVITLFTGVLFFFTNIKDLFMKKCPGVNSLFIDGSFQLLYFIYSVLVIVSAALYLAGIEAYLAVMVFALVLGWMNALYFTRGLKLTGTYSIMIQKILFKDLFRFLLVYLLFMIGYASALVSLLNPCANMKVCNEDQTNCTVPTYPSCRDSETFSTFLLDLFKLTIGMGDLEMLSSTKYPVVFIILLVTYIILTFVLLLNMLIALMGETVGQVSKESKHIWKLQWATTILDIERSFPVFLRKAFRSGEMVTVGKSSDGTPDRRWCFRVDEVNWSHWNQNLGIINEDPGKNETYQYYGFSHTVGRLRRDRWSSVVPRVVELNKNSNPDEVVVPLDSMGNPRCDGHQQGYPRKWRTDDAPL
# Chain of Potassium channel subfamily K member 3 (O14649 whole entry): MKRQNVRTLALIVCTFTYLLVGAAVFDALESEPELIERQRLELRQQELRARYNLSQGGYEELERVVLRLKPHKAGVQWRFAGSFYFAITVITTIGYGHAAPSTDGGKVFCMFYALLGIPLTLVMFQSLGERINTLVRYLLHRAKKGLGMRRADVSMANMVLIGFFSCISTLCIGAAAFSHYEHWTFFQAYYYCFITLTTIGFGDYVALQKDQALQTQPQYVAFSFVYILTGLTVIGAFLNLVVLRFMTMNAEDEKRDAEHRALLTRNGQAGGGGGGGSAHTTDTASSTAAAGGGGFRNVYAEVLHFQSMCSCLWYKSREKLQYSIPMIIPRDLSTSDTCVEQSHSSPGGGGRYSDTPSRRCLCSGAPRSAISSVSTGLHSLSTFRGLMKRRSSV
# Chain of Sodium channel protein type 10 subunit alpha (Q9Y5Y9 whole entry): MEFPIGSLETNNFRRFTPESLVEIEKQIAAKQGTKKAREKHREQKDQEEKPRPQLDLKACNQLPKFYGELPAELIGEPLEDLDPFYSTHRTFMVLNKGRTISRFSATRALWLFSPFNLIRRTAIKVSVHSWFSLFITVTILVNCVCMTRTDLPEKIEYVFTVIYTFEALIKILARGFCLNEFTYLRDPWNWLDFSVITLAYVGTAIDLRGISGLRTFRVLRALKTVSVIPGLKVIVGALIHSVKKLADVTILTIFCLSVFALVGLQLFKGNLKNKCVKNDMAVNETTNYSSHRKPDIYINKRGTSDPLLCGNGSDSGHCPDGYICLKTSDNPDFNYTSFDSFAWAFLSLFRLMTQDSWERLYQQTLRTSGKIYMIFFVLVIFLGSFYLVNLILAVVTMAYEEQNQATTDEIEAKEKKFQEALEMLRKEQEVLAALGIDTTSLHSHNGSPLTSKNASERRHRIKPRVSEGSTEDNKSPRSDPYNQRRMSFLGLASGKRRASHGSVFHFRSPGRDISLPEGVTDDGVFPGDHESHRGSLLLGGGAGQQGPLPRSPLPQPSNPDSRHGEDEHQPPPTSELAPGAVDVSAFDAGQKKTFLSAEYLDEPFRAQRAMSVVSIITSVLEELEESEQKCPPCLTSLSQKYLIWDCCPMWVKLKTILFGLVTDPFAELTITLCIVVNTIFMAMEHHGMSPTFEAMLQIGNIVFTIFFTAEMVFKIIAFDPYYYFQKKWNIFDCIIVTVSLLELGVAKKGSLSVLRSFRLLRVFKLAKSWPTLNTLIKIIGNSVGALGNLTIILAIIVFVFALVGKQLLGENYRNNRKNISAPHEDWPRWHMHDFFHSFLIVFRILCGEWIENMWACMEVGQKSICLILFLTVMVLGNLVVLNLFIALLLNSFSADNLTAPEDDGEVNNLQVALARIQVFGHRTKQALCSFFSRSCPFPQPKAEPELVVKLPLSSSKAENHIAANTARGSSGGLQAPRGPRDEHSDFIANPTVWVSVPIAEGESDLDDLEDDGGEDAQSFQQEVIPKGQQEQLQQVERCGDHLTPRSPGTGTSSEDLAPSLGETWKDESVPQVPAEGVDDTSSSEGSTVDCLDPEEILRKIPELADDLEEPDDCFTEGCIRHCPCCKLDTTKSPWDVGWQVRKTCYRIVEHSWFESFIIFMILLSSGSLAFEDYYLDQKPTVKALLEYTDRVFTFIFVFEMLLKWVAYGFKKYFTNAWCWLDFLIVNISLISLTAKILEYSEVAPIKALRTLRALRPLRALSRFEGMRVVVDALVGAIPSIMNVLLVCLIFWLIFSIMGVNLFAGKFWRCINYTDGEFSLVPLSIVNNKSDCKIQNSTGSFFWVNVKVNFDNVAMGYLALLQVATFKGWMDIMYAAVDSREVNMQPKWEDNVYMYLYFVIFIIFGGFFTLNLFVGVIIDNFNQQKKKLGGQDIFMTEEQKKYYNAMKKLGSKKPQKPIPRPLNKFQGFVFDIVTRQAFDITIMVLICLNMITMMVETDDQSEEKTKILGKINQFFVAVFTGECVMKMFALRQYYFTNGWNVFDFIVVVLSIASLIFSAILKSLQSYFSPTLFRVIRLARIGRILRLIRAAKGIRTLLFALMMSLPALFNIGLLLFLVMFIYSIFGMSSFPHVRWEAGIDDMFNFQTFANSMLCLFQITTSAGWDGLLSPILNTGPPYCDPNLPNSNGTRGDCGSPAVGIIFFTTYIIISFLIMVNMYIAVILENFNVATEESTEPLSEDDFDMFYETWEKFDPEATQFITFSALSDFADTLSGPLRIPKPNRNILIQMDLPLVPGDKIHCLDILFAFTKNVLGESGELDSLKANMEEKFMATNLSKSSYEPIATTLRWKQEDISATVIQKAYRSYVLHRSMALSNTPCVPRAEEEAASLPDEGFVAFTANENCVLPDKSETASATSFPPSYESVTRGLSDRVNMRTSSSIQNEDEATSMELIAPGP
# Chain of P2X2/P2X3 heterotrimeric receptor (Q9UBL9 whole entry): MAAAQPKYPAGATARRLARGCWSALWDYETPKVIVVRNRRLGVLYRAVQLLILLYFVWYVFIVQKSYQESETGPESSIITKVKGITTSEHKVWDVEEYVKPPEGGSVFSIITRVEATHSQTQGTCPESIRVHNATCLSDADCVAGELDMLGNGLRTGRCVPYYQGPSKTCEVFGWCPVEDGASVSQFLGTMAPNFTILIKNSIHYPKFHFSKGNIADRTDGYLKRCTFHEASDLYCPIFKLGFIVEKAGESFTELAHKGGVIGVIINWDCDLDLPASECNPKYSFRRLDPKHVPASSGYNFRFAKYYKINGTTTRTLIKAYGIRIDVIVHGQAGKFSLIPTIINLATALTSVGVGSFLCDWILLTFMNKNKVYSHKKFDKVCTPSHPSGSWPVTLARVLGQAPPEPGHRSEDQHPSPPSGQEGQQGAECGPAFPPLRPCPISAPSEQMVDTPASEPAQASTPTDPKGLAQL
# Chain of P2X2/P2X3 heterotrimeric receptor (P56373 whole entry): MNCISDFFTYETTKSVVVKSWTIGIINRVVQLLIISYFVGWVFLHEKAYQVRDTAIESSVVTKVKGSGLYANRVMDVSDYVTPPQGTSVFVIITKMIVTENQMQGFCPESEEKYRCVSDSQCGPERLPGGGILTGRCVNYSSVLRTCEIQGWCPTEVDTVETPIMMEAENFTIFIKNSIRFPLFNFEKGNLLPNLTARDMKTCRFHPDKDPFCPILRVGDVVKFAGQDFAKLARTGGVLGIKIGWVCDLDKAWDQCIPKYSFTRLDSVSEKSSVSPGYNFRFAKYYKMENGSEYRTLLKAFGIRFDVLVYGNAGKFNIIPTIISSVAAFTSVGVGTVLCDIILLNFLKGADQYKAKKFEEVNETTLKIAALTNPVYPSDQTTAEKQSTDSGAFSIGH
# Chain of Potassium voltage-gated channel subfamily KQT member 3 (O43525 whole entry): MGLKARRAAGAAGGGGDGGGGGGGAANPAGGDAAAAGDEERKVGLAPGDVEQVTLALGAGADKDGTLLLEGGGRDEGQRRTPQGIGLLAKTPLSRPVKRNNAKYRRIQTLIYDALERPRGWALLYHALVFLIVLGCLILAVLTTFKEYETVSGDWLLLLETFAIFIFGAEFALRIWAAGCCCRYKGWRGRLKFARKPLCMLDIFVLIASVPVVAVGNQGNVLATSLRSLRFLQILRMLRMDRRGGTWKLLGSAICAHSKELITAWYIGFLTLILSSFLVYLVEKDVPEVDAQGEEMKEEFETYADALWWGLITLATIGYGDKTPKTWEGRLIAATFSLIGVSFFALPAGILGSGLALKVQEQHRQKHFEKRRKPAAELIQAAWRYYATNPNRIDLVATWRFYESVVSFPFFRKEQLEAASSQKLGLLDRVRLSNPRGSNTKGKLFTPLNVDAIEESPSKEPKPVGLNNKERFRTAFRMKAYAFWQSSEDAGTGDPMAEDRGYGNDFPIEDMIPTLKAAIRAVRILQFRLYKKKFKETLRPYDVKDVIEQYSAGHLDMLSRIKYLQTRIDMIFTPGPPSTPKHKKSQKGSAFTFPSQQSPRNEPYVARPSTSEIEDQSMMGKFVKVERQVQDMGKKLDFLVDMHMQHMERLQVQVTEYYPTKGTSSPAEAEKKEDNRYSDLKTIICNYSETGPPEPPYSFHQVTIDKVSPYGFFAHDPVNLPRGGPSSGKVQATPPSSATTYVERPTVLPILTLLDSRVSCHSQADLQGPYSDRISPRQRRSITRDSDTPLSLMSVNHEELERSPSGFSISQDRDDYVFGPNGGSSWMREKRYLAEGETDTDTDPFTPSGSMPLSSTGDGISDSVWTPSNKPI
smiles,measurement,setting,value
CCOC(=O)c1ncn2c1[C@@H]1CCCN1C(=O)c1cc(OC)ccc1-2,pKi,[1],7.31
same,pKi,[2],9.35
same,pKi,[3],7.57
same,pKi,[4],7.60
CNCCC(Oc1ccc(C(F)(F)F)cc1)c1ccccc1 (stereo not given) [FLUOXETINE],pIC50,[5],4.88
Cn1ncnc1COc1nn2c(-c3cc(F)ccc3F)nnc2cc1C(C)(C)C,Activity,[6],36%
same,Activity,[7],39%
same,Activity,[8],34%
same,pKi,[2],8.64
same,pKi,[3],9.15
same,pKi,[4],9.15
CCCC(=O)C1CCN(c2ncnc3c2CN(C(=O)c2ccc(-c4ccccc4)cc2)CC3)CC1,pIC50,[9],6.52
COc1ccc(Cl)cc1[C@]1(F)C(=O)Nc2cc(C(F)(F)F)ccc21 [FLINDOKALNER],pEC50,[10],5.62
same,pEC50,[11],5.62
same,pEC50,[12],5.62
same,pEC50,[13],5.62
same,pEC50,[14],6.45
CN[C@@H](C)C/C=C/c1cncc(OC(C)C)c1 [ISPRONICLINE],pEC50,[15],6.97
CC(C)NCCN(C(C)C)S(=O)(=O)c1ccc(Cl)cc1Cl,pIC50,[16],5.64
Cc1cc(-c2nncc3c(C(C)(C)C)c(OCc4ncnn4C)nn23)no1,Activity,[17],23%
same,Activity,[7],-15%
same,Activity,[8],4%
same,pKi,[1],9.10
same,pKi,[2],8.85
same,pKi,[3],9.10
same,pKi,[4],9.10
Cc1ccc(-c2cc(C(=O)N[C@H](C)c3ccc(F)cn3)cc(-c3ncccc3F)c2)nc1,pIC50,[18],5.10
CC(C)(C)c1s[nH]c(=O)c1C[C@H](N)C(=O)O,pEC50,[19],7.00
O=C(NCc1ccc(Cl)c(C(F)(F)F)c1)c1ccc(S(=O)(=O)Nc2ncc(Cl)s2)cc1,Ratio IC50,Homo sapiens,> 1000
same,pIC50,[20],7.52
O=C(NCc1cccnc1N1CCOCC1)c1cncc(-c2ccc(OC(F)(F)F)cc2)n1,pIC50,[21],7.52
Cc1csc(-c2cc(-c3ccncc3)c3n(c2=O)CCCc2ccncc2-3)n1,Activity,[8],37%
same,pKi,[1],8.89
same,pKi,[3],9.22
same,pKi,[4],9.30
N=C(N)NC(=O)c1nc(Cl)c(N)nc1N [AMILORIDE],pIC50,[22],5.00
O=c1ccc2c(OCCCCc3ccccc3)c3ccoc3cc2o1,Ratio EC50,Mus musculus [23],17
same,Ratio EC50,[24],17
same,Ratio EC50,[25],17
same,Ratio EC50,Mus musculus [26],17
